Values joined by “and” are separate entries in the source; they are usually repeats but may differ in a detail not shown here. Equal values may be shown once.
Settings: Liquid, DSC

O=[N+]([O-])OCC(CO[N+](=O)[O-])O[N+](=O)[O-] [nitroglycerin]
Settings	vapor or sublimation pressure
298.15 K	7e-05 kPa and 7.1e-05 kPa
303.15 K	0.00014 kPa and 0.000137 kPa
313.15 K	0.00046 kPa and 0.000462 kPa
323.15 K	0.0014 kPa and 0.001402 kPa
333.15 K	0.00387 kPa and 0.003866 kPa
343.15 K	0.00981 kPa and 0.009811 kPa
353.15 K	0.02313 kPa
363.15 K	0.05111 kPa
373.15 K	0.1066 kPa
383.15 K	0.211 kPa
393.15 K	0.3988 kPa
403.15 K	0.7228 kPa
413.15 K	1.261 kPa
423.15 K	2.127 kPa
433.15 K	3.475 kPa
443.15 K	5.519 kPa
453.15 K	8.539 kPa
463.15 K	12.9 kPa
473.15 K	19.06 kPa
483.15 K	27.59 kPa
493.15 K	39.2 kPa
503.15 K	54.73 kPa
513.15 K	75.19 kPa
523.15 K	101.77 kPa

Reference: the NIST ThermoML archive (doi:10.1016/j.tca.2010.06.014)
